Test results: patent US20260232608A1, “AMINOTHIOLS FOR THE TREATMENT OF CONDITIONS CHARACTERIZED BY PROTEIN MISFOLDING OR AGGREGATION, MITOCHONDRIAL DYSFUNCTION, OR CHRONIC INFLAMMATION” (Obvia Pharmaceuticals, Ltd., priority 2023, published 2026)
“Also recorded” adds a separate entry of the source.

What was measured:
[1] = 1H NMR stability of PrC-210 in deuterated water under pH titration; assay type: physicochemical
Method: (§1) We established the chemical structure profile of PrC-210 using Nuclear Magnetic Resonance (NMR) spectroscopy experiments. […] This structural stability of the PrC-210 mono-thiol form in this pH range remained for at least the observed 24 hours. […] In our pH titrations between pH 9.0 and 13.0, we saw clear structural changes to PrC-210; from these progressive changes, we calculated that the pKas of the two PrC-210 amines are all substantially above the pH (pH 7.2) of physiological conditions (FIG. 3).

[2] = test system: DBA/1J mice; assay: Paw swelling in DBA/1J mice immunized against collagen III; assay type: in vivo, mouse
From the text: To show further, that this suppression of chronic inflammation applies generally to other organs than the brain, DBA/1J mice immunized against collagen III where treated systemically and topically with PrC-210.

[3] = test system: Caspase 8, Caspase 3/7; assay: Apoptosis markers in mice irradiated with 8.68 Gy, PrC-210 given before irradiation; assay type: in vivo, mouse
Method: To examine PrC-210-conferred protection in an animal model, we irradiated mice with 8.68 Gy and treated them with a 0.5MTD dose of PrC-210 30 minutes before irradiation. Normally, lethal radiation with 8.68 Gy leads to massive DNA damage and activation of the intrinsic apoptotic pathway. […] This means that the radiation insult didn't trigger a significant activation of the intrinsic apoptotic pathway nor did it trigger a mitotic arrest with p53 activation. […] This apoptotic suppression and protection lasted for the entire observation time of six days, which is a sign, that PrC-210 was still present after six days. When we looked at mouse plasma in the same experiment, we saw the same 6 days apoptotic suppression as in the brain in caspase 3/7 levels (FIG. 9F).

[4] = pKa of the two PrC-210 amines from NMR pH titration; assay type: physicochemical; settings: pH titrations between pH 9.0 and 13.0; FIG. 3 legend: 3 pH units above physiological pH
Method: as §1

[5] = Pharmacokinetics study with [14]C-labeled PrC-210, intravenous, male rats; assay type: in vivo; settings: after 48 hr
From the text: We were also interested to see whether PrC-210-cysteine disulfide formation is transient or permanent; permanent PrC-210 hetero-disulfide formation with cellular proteins would be expected to have an impact on protein function and could translate into unwanted, toxic, side effects and should be seen as PrC-210 residues showing up as urinary or fecal metabolites. […] C labeled PrC-210, we found only minimal metabolism of PrC-210 (1.07%) after 48 hr (FIG. 7, unpublished data). It is well described that i) disulfide binding is reversible (see, e.g., Koji Aoyama, Int. J. Mol. Sci. 2021, 22 (9), 5010) and ii) that there are also two highly efficient thiol reducing systems in the cell (see, e.g., Cumming et al., The Journal of Biological Chemistry vol. 279, No. 21, Issue of May 21, pp. 21749-21758, 2004), which reduce disulfide bonds between glutathione and proteins in non-oxidative stress situations (see, e.g., Koji Aoyama, Int. J. Mol. Sci. 2021, 22 (9), 5010). Based upon both our experimental findings and the published literature, it would then be logical that PrC-210 disulfide bonds with proteins would be governed by the same chemical and enzymatic processes.

[6] = Consumption of PrC-210 thiol by hydrogen peroxide, with or without ammonium acetate; assay type: physicochemical; settings: pH 7
Method: We believe that the increased reactivity of the thiol in the presence of negative charges, such as ammonium acetate, also occurs when PrC-210-thiol is in close proximity to other reactive structures, such as hydrogen peroxide. We have studied hydrogen peroxide, as it is a non-radical oxygen species with a much longer half-life than superoxide. We added hydrogen peroxide to an aqueous 5 mM solution of PrC-210 thiol at pH 7.

[7] = 1H NMR stability / thiol reactivity of PrC-210 with ammonium acetate (disulfide formation); assay type: physicochemical
[8] = within its therapeutic window; cited from earlier work
[9] = test system: C57 mice; assay: EAE model, paralysis score after immunization with MOG peptide; assay type: in vivo, mouse
Method: To show, that PrC-210 suppresses neuroinflammation which is caused by an autoimmune induction of the disease, PrC-210 was applied 24 hours before immunization of C57 mice against MOG peptide (FIG. 13A), and immediately after first paralysis symptoms developed from the autoimmunization against myelin.

[10] = test system: caspase 1, complement 3 (C3); assay: Inflammation markers in mouse brain after 8.68 Gy, PrC-210 given 24 hours after irradiation; assay type: in vivo, ICR mice; settings: 8.68 Gy whole-body, 0.3 MTD i.p. 24 hours after irradiation
Method: To visualize the effect of radiation on the immune response of the mouse brain, ICR mice received 8.68 Gy whole-body radiation (FIG. 10) at Time “0.” O.3MTD, i.p. PrC-210 was administered 24 hours after irradiation. […] The same applied to the inflammation marker, complement 3 (C3) (FIG. 12B). […] Most important, this suppression was a direct suppression of the immune response and was not an indirect suppression through protection of proteins and lipids against damage. Radiation-induced protein damage would have triggered an apoptotic response, as it can be seen in the second peak of caspase 3/7 in FIG. 12C. Therefore, this experiment teaches that PrC-210 is able to enter the brain and directly suppresses post-irradiation inflammation.

[11] = test system: Cytochrome C; assay: Cytochrome C release in mouse heart after 8.68 Gy, PrC-210 given 24 hours after irradiation; assay type: in vivo; settings: PrC-210 0.3 MTD given 24 hours post-irradiation
Method: Different from the first peak after 12 hours, this peak is not due to DNA damage and activation of the intrinsic apoptotic pathway, as there is neither an associated p53 nor 8-oxo-dG increase at 48 hours post-irradiation (data not shown), nor an activation of the intrinsic apoptotic pathway (FIG. 11B). This peak represents a massive damage of complex IV of the respiratory chain, which is located at the inner mitochondrial membrane. […] This discovery teaches us, that PrC-210 enters mitochondria and protects the proteins and lipids of the mitochondrial membranes against insults, insults which result in the release of cytochrome C. This invention applies to all diseases which are caused by damage of the mitochondria, such as aging and all age-related diseases, neurodegenerative diseases, diseases of the cardio-vascular system, such as arteriosclerosis, damage of the heart valves or main arteries, and in general to diseases caused by damage of the mitochondria membranes, the mitochondria DNA and proteins.

[12] = test system: SOD1^G93A mice; assay: Body weight of SOD1G93A ALS mice; assay type: in vivo, mouse; settings: systemic PrC-210 0.1 MTD, IP
From the text: This experiment was designed to illuminate whether PrC-210 is able to stop the progression of diseases which are based on protein aggregation, such as Amyotrophic Lateral Sclerosis (ALS). […] Weight loss was progressive and was in exponential decline along with onset of ALS motor symptoms. […] As ALS pathology is based upon protein aggregation, the findings in this experiment support our inventive concept that PrC-210 is able to suppress protein misfolding and thereby suppress the pathology of these diseases. This invention applies to all neuronal, organ specific and systemic diseases which are caused by protein aggregations, such as neurodegenerative diseases, local and systemic amyloidosis, Type II diabetes, cataract of the eye, etc.

[13] = 0.5 MTD PrC-210 before irradiation

With `CNCC(CS)CNC` [PrC-210] the “stability at high pH after 72 hours (1H NMR)” value ([1]; deuterated water, pH 9.0, 72 hrs) was “significant change; also recorded: some instability”, the “effect of the thiol blocker TCEP on PrC-210 stability” value ([1]; water, pH 9.0, 72 hr, TCEP added, data not shown) was “doesn't influence the PrC-210 stability” and the swelling of paws ([2]; 370 mM PrC-210 applied topically, started at paw swelling score higher than 10) was “significantly reduced”. For the same compound, the swelling of paws ([2]; twice weekly intraperitoneal injection of 0.075 MTD PrC-210, started with first paw symptoms) was “significantly reduced”, the “Caspase 3/7 level in mouse plasma” value ([3]; 0.5 MTD PrC-210 30 min before irradiation) was “suppressed to background” and the “duration of apoptotic suppression and protection in brain” value ([3]; 0.5 MTD PrC-210, entire observation time) was “six”. The “duration of apoptotic suppression (caspase 3/7) in mouse plasma” value ([3]; 0.5 MTD PrC-210, same experiment) was 6 days, the “Caspase 3/7 level in mouse brain” value [3, 13] was “suppressed to background” and the “Caspase 8 level in mouse brain” value [3, 13] was “suppressed to background”. The “pKas of the two amines of PrC-210” value [4] was > 7.2, the “metabolism of PrC-210” value [5] was 1.07% and the “effect of ammonium acetate on hydrogen peroxide consumption of PrC-210 thiol” value ([6]; ammonium acetate (5 mM) added seconds before hydrogen peroxide (0.5 mM), 5 mM PrC-210 thiol) was “significant enhancement; also recorded: significantly enhanced”. The “consumption of free PrC-210 thiol by hydrogen peroxide” value ([6]; aqueous 5 mM PrC-210 thiol) was “dose-dependent consumption”, the half-life ([7]; aqueous solution with ammonium acetate, ammonium acetate added to aqueous PrC-210 mono-thiol solution, pH 7.2 (FIG. 6A)) was 186 min and the “stability of PrC-210 with ammonium acetate and TCEP (1H NMR)” value ([7]; deuterated water with ammonium acetate and thiol blocker TCEP, pH 7.0, 24 hours) was “remains stable”. For the same compound, the “structural change of PrC-210 with ammonium acetate (1H NMR)” value ([7]; deuterated water with ammonium acetate, pH 7.0, 1 hour and 24 hours) was “substantial structural changes within hours”, the “PrC-210 half-life in water” value ([7]; water, previously observed) was “days” and the toxic side effects [8] was “no toxic side effects”. For the same compound, the “development and severity of paralysis symptoms” value ([9]; twice weekly intraperitoneal PrC-210 started 24 hours before immunization with MOG peptide) was “significantly suppressing”, the “development and severity of paralysis symptoms” value ([9]; twice weekly intraperitoneal PrC-210 started when first paralysis symptoms were observed) was “significantly suppressing” and the “inflammation marker complement 3 (C3) in mouse brain” value [10] was “significantly suppressed”. The “inflammasome marker caspase 1 in mouse brain” value ([10]; starting eight days after radiation) was “significantly suppressed”, the “cytochrome C release in heart muscle (second peak, 48 hours post-irradiation)” value [11] was “suppress cytochrome C release to background” and the “body weight / weight loss” value [12] was “immediate plateau in body weight loss”.
